Consider 48 molecules from ChEMBL document CHEMBL1137357, “Further synthetic and biological studies on vitamin D hormone antagonists based on C24-alkylation and C2alpha-functionalization of 25-dehydro-1alpha-hydroxyvitamin D(3)-26,23-lactones” (J Med Chem, 2006).

SMILES strings stand for the structures.

This test concerns the target T1, Vitamin D3 receptor (Homo sapiens) (UniProt P11473).
T1 sequence (whole entry): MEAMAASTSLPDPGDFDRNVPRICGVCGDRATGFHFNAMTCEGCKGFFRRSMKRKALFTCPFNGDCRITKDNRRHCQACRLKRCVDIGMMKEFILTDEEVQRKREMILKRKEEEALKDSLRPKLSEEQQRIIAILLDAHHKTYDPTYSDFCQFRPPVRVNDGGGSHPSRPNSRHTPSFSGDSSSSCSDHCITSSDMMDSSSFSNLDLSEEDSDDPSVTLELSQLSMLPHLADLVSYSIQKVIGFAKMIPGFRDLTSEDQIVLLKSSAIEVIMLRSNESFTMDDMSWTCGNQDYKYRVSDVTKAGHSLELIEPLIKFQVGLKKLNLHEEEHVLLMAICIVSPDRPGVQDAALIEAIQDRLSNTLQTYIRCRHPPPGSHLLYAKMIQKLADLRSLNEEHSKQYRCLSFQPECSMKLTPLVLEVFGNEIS
The test can be described thus: Antagonist activity against 1-alpha,25-dihydroxy vitamin D3-induced HL60 cell differentiation by NBT reduction method relative to TEI-9647. The format is functional, cell-based. The arrangement: scale not given: the % may be the effect or the level left. The note with it: HL-60.
`C=C1/C(=C\C=C2/CCC[C@]3(C)[C@@H]([C@H](C)C[C@@H]4OC(=O)C(=C)[C@@H]4CCCC)CC[C@@H]23)C[C@@H](O)[C@H](C)[C@@H]1O` yielded an Activity of 2910%.
For the molecule `C=C1/C(=C\C=C2/CCC[C@]3(C)[C@@H]([C@H](C)C[C@@H]4OC(=O)C(=C)[C@@H]4CC)CC[C@@H]23)C[C@@H](O)[C@H](CCCO)[C@@H]1O`, the Activity worked out at 442%.
`C=C1/C(=C\C=C2/CCC[C@]3(C)[C@@H]([C@H](C)C[C@@H]4OC(=O)C(=C)[C@H]4CC(C)C)CC[C@@H]23)C[C@@H](O)[C@H](C)[C@@H]1O` displayed an Activity of 229%.
To `C=C1C(=O)O[C@H](C[C@@H](C)[C@H]2CC[C@H]3/C(=C/C=C4/C[C@@H](O)C[C@H](O)C4=C)CCC[C@]23C)[C@@H]1CCC` belongs 38%.
As to `C=C1/C(=C\C=C2/CCC[C@]3(C)[C@@H]([C@H](C)C[C@H]4OC(=O)C(=C)[C@@H]4CC)CC[C@@H]23)C[C@@H](O)[C@H](CCCO)[C@@H]1O`, the Activity was determined as 37%.
To `C=C1/C(=C\C=C2/CCC[C@]3(C)[C@@H]([C@H](C)C[C@H]4OC(=O)C(=C)[C@@H]4CCCC)CC[C@@H]23)C[C@@H](O)[C@H](OCCCO)[C@@H]1O` belongs 88%.
To `C=C1C[C@@H](C[C@@H](C)[C@H]2CC[C@H]3/C(=C/C=C4/C[C@@H](O)C[C@H](O)C4=C)CCC[C@]23C)OC1=O` belongs 7%.
For `C=C1/C(=C\C=C2/CCC[C@]3(C)[C@@H]([C@H](C)C[C@H]4OC(=O)C(=C)[C@H]4CCCC)CC[C@@H]23)C[C@@H](O)[C@H](C)[C@@H]1O` the value was 102%.
`C=C1/C(=C\C=C2/CCC[C@]3(C)[C@@H]([C@H](C)C[C@@H]4OC(=O)C(=C)[C@@H]4C)CC[C@@H]23)C[C@@H](O)C[C@@H]1O`: the Activity turned out to be 220%.
To `C=C1C(=O)O[C@H](C[C@@H](C)[C@H]2CC[C@H]3/C(=C/C=C4/C[C@@H](O)[C@H](OCCCO)[C@H](O)C4=C)CCC[C@]23C)[C@@H]1C` belongs 41%.
For `C=C1C[C@H](C[C@@H](C)[C@H]2CC[C@H]3/C(=C/C=C4/C[C@@H](O)[C@H](C)[C@H](O)C4=C)CCC[C@]23C)OC1=O` the value was 1020%; for `C=C1C(=O)O[C@@H](C[C@@H](C)[C@H]2CC[C@H]3/C(=C/C=C4/C[C@@H](O)[C@H](C)[C@H](O)C4=C)CCC[C@]23C)[C@@H]1C`, 6190%; for `C=C1/C(=C\C=C2/CCC[C@]3(C)[C@@H]([C@H](C)C[C@@H]4OC(=O)C(=C)[C@@H]4CCC)CC[C@@H]23)C[C@@H](O)[C@H](C)[C@@H]1O`, 1540%.
To `C=C1/C(=C\C=C2/CCC[C@]3(C)[C@@H]([C@H](C)C[C@@H]4OC(=O)C(=C)[C@@H]4CC)CC[C@@H]23)C[C@@H](O)[C@H](OCCCO)[C@@H]1O` belongs 600%.
In turn, `C=C1/C(=C\C=C2/CCC[C@]3(C)[C@@H]([C@H](C)C[C@H]4OC(=O)C(=C)C45CC5)CC[C@@H]23)C[C@@H](O)C[C@@H]1O` gave an Activity below 0.3%.
For `C=C1/C(=C\C=C2/CCC[C@]3(C)[C@@H]([C@H](C)C[C@@H]4OC(=O)C(=C)[C@H]4CC(C)C)CC[C@@H]23)C[C@@H](O)[C@H](OCCCO)[C@@H]1O` the value was 291%.
For `C=C1/C(=C\C=C2/CCC[C@]3(C)[C@@H]([C@H](C)C[C@H]4OC(=O)C(=C)[C@@H]4C)CC[C@@H]23)C[C@@H](O)[C@H](C)[C@@H]1O` the value was 85%; for `C=C1/C(=C\C=C2/CCC[C@]3(C)[C@@H]([C@H](C)C[C@@H]4OC(=O)C(=C)[C@H]4CC)CC[C@@H]23)C[C@@H](O)[C@H](CCCO)[C@@H]1O`, 866%.
For `C=C1/C(=C\C=C2/CCC[C@]3(C)[C@@H]([C@H](C)C[C@H]4OC(=O)C(=C)[C@H]4CCC)CC[C@@H]23)C[C@@H](O)[C@H](CCCO)[C@@H]1O` the value was 117%; for `C=C1/C(=C\C=C2/CCC[C@]3(C)[C@@H]([C@H](C)C[C@H]4OC(=O)C(=C)[C@@H]4CC(C)C)CC[C@@H]23)C[C@@H](O)[C@H](CCCO)[C@@H]1O`, 32%.
`C=C1/C(=C\C=C2/CCC[C@]3(C)[C@@H]([C@H](C)C[C@@H]4OC(=O)C(=C)[C@H]4CCCC)CC[C@@H]23)C[C@@H](O)[C@H](CCCO)[C@@H]1O` had an Activity of 122%.
The molecule `C=C1C(=O)O[C@@H](C[C@@H](C)[C@H]2CC[C@H]3/C(=C/C=C4/C[C@@H](O)C[C@H](O)C4=C)CCC[C@]23C)[C@@H]1CCCC` displayed an Activity of 58%.
As for `C=C1/C(=C\C=C2/CCC[C@]3(C)[C@@H]([C@H](C)C[C@H]4OC(=O)C(=C)[C@H]4CC)CC[C@@H]23)C[C@@H](O)[C@H](C)[C@@H]1O`, the Activity is 74%.
For `C=C1/C(=C\C=C2/CCC[C@]3(C)[C@@H]([C@H](C)C[C@@H]4OC(=O)C(=C)[C@H]4CC)CC[C@@H]23)C[C@@H](O)[C@H](OCCCO)[C@@H]1O` the value was 158%; for `C=C1/C(=C\C=C2/CCC[C@]3(C)[C@@H]([C@H](C)C[C@@H]4OC(=O)C(=C)[C@@H]4CCC)CC[C@@H]23)C[C@@H](O)[C@H](OCCCO)[C@@H]1O`, 85100%; for `C=C1/C(=C\C=C2/CCC[C@]3(C)[C@@H]([C@H](C)C[C@H]4OC(=O)C(=C)[C@@H]4CC(C)C)CC[C@@H]23)C[C@@H](O)[C@H](C)[C@@H]1O`, 4%.
For `C=C1/C(=C\C=C2/CCC[C@]3(C)[C@@H]([C@H](C)C[C@H]4OC(=O)C(=C)[C@H]4CCC)CC[C@@H]23)C[C@@H](O)[C@H](C)[C@@H]1O` the value was 170%; for `C=C1C[C@@H](C[C@@H](C)[C@H]2CC[C@H]3/C(=C/C=C4/C[C@@H](O)[C@H](C)[C@H](O)C4=C)CCC[C@]23C)OC1=O`, 38%.
For `C=C1C[C@@H](C[C@@H](C)[C@H]2CC[C@H]3/C(=C/C=C4/C[C@@H](O)[C@H](CCCO)[C@H](O)C4=C)CCC[C@]23C)OC1=O` the value was 100%; for `C=C1C(=O)O[C@H](C[C@@H](C)[C@H]2CC[C@H]3/C(=C/C=C4/C[C@@H](O)[C@H](C)[C@H](O)C4=C)CCC[C@]23C)[C@@H]1C`, 476%; for `C=C1/C(=C\C=C2/CCC[C@]3(C)[C@@H]([C@H](C)C[C@@H]4OC(=O)C(=C)[C@H]4CCCC)CC[C@@H]23)C[C@@H](O)[C@H](C)[C@@H]1O`, 216%.
For the molecule `C=C1/C(=C\C=C2/CCC[C@]3(C)[C@@H]([C@H](C)C[C@@H]4OC(=O)C(=C)[C@@H]4CC(C)C)CC[C@@H]23)C[C@@H](O)[C@H](C)[C@@H]1O`, the Activity came out at 1220%.
As to `C=C1/C(=C\C=C2/CCC[C@]3(C)[C@@H]([C@H](C)C[C@H]4OC(=O)C(=C)[C@@H]4CC)CC[C@@H]23)C[C@@H](O)[C@H](C)[C@@H]1O`, the Activity is 18%.
For `C=C1/C(=C\C=C2/CCC[C@]3(C)[C@@H]([C@H](C)C[C@@H]4OC(=O)C(=C)[C@@H]4CCCC)CC[C@@H]23)C[C@@H](O)[C@H](CCCO)[C@@H]1O` the value was 1160%.
For `C=C1/C(=C\C=C2/CCC[C@]3(C)[C@@H]([C@H](C)C[C@@H]4OC(=O)C(=C)[C@@H]4C)CC[C@@H]23)C[C@@H](O)[C@H](OCCCO)[C@@H]1O` the value was 1970%; for `C=C1C[C@@H](C[C@@H](C)[C@H]2CC[C@H]3/C(=C/C=C4/C[C@@H](O)[C@H](OCCCO)[C@H](O)C4=C)CCC[C@]23C)OC1=O`, 66%; for `C=C1/C(=C\C=C2/CCC[C@]3(C)[C@@H]([C@H](C)C[C@H]4OC(=O)C(=C)[C@@H]4CCC)CC[C@@H]23)C[C@@H](O)[C@H](C)[C@@H]1O`, 12%.
`C=C1/C(=C\C=C2/CCC[C@]3(C)[C@@H]([C@H](C)C[C@H]4OC(=O)C(=C)[C@H]4CC)CC[C@@H]23)C[C@@H](O)[C@H](CCCO)[C@@H]1O` registered an Activity of 18%.
To `C=C1/C(=C\C=C2/CCC[C@]3(C)[C@@H]([C@H](C)C[C@@H]4OC(=O)C(=C)[C@@H]4CCCC)CC[C@@H]23)C[C@@H](O)C[C@@H]1O` belongs 179%; to `C=C1/C(=C\C=C2/CCC[C@]3(C)[C@@H]([C@H](C)C[C@@H]4OC(=O)C(=C)[C@@H]4C)CC[C@@H]23)C[C@@H](O)[C@H](CCCO)[C@@H]1O`, 517%.
For `C=C1/C(=C\C=C2/CCC[C@]3(C)[C@@H]([C@H](C)C[C@H]4OC(=O)C(=C)[C@@H]4CC(C)C)CC[C@@H]23)C[C@@H](O)C[C@@H]1O` the value was 5%; for `C=C1/C(=C\C=C2/CCC[C@]3(C)[C@@H]([C@H](C)C[C@@H]4OC(=O)C(=C)[C@@H]4CCC)CC[C@@H]23)C[C@@H](O)[C@H](CCCO)[C@@H]1O`, 4200%; for `C=C1/C(=C\C=C2/CCC[C@]3(C)[C@@H]([C@H](C)C[C@H]4OC(=O)C(=C)[C@H]4CC(C)C)CC[C@@H]23)C[C@@H](O)[C@H](OCCCO)[C@@H]1O`, 25%.
To `C=C1/C(=C\C=C2/CCC[C@]3(C)[C@@H]([C@H](C)C[C@@H]4OC(=O)C(=C)[C@H]4CC)CC[C@@H]23)C[C@@H](O)[C@H](C)[C@@H]1O` belongs 248%; to `C=C1C(=O)O[C@H](C[C@@H](C)[C@H]2CC[C@H]3/C(=C/C=C4/C[C@@H](O)C[C@H](O)C4=C)CCC[C@]23C)[C@@H]1C`, 18%; to `C=C1/C(=C\C=C2/CCC[C@]3(C)[C@@H]([C@H](C)C[C@H]4OC(=O)C(=C)[C@@H]4CCC)CC[C@@H]23)C[C@@H](O)C[C@@H]1O`, 8%.
Take `C=C1/C(=C\C=C2/CCC[C@]3(C)[C@@H]([C@H](C)C[C@H]4OC(=O)C(=C)[C@@H]4CC(C)C)CC[C@@H]23)C[C@@H](O)[C@H](OCCCO)[C@@H]1O`: the Activity was 42%.
For `C=C1/C(=C\C=C2/CCC[C@]3(C)[C@@H]([C@H](C)C[C@@H]4OC(=O)C(=C)[C@@H]4CC(C)C)CC[C@@H]23)C[C@@H](O)[C@H](OCCCO)[C@@H]1O` the value was 3440%.
